According to patent US11279744B2, “Neuropeptide Y fragment capable of releasing hematopoietic stem cells into blood and treating osteoporosis” (Kyungpook National University Industry-Academic Cooperation …, priority 2017, dated 2022):
“Also recorded” adds a separate entry of the source. Non-standard residues stand in square brackets, D forms with d. No end group written: not given here.

Columns and labels:
[1] = test system: hematopoietic stem cell adhesion factors (Sdf-1a, KitI, Angpt1) present in osteoblasts; assay: expression of hematopoietic stem cell adhesion factors in osteoblasts, real-time quantitative PCR; type: cell-based, mouse; conditions: for expression levels of Sdf-1a, KitI, and Angpt1 in osteoblasts: 10 nM peptide for 3 days, compared to osteoblasts (control) not treated with peptides, fold change
Protocol: All mice used in the experiment were 6 to 8 weeks old mice, C57BL/6 mice, and purchased from Jackson Laboratory (Bar Harbor, Me., USA). NPY (21-28) (SEQ ID NO: 1), NPY (24-31) (SEQ ID NO: 2), NPY (29-36) (SEQ ID NO: 3), NPY D25 (21-28) (SEQ ID NO: 4), NPY D26 (21-28) (SEQ ID NO: 5), NPY D25, 26 (21-28) (SEQ ID NO: 6), NPY (21-36) (Osteopep2) (SEQ ID NO: 7) were prepared from Anygen. Full length NPY (SEQ ID NO: 8) was purchased from Bachem. 10 nM of each peptide was diluted in each medium and injected for in vitro experiments. The NPY D^25(21-28) refers to a peptide in which arginine, the fifth amino acid of the amino acid sequence of NPY (21-28), is modified to D-type, the NPY D^26(21-28) refers to a peptide in which the sixth amino acid histidine is modified to D-form, and the D^25,26(21-28) refers to a peptide in which both the fifth and sixth amino acids are modified to D-form, respectively.
Four to six weeks old C57BL/6 mice were sacrificed after anesthesia, and then tibias and femurs were dissected. Bone marrow was harvested from tibias and femurs and single cell suspensions were obtained using a 40 μm cell strainer (Becton-Dickinson LAβware, Franklin Lakes, N.J.). Approximately […] were dispensed into 75-cm 2 flasks containing mesenchymal stem cells Stimulatory Supplements with antibiotics (Stem Cell Technologies, Inc) and MesenCult™ MSCBasal medium. The cells were incubated for 1 week and further incubated for 3 weeks with StemXVivo Osteogenic/Adipogenic Base Media (R & D systems) supplemented with StemXVivo Osteogenic supplement (20×) and penicillin-streptomycin (100×) for differentiation into osteoblasts.
Real-time quantitative PCR was used to measure expression levels of hematopoietic stem cell adhesion factors (Sdf-1a, KitI, Angpt1) present in osteoblasts. Total RNA was extracted from cell eluate and bone marrow cells using the RNeasy Plus mini kit (Qiagen, Korea, Ltd), and cDNAs were synthesized from 5 μg total RNA using a kit in Clontech (Mountain View, Calif.). In addition, using a Corbett research RG-6000 real-time PCR instrument, Real-time quantitative PCR was performed at 95° C. for 10 minutes; at 95° C., for 10 seconds; at 58° C., for 15 seconds; at 72° C. for 20 seconds as one cycle, and 40 cycles were repeated.
First, bone marrow was harvested from 4 to 6 weeks old C57BL6 mice, and mesenchymal stem cells (BM-MSCs) in bone marrow were collected, and then cultured for 3 weeks in osteoblast differentiation induction medium for the differentiation into osteoblasts. After 28 days, each peptide was treated with 10 nM for 3 days, and bone cells were collected and examined for expression levels of three adhesion factors by real-time quantitative PCR. Osteopep2 and its parent NPY were used as positive controls.

[2] = weight change in animal models of osteoporosis (OVX); type: in vivo, mouse; conditions: OVX mice, 50 μg/kg intraperitoneally twice a day for 4 weeks; weighed weekly; vs PBS group that gained weight
Protocol: (§1) To make an osteoporosis model, 10-18 12 weeks old female mice per group underwent ovarian ablation. A week later, 50 μg/kg of NPY(21-28), NPY D^25(21-28), NPY D^26(21-28), NPY D^25,26(21-28), Osteopep2, NPY and 100 μl of PBS(Gibco) were intraperitoneally administered twice a day for 4 weeks at 12 hour intervals. Alendronate (Sigma), used as a competitive drug, was intraperitoneally administered once a week for 4 weeks at a dose of 50 μg/kg. As a control group, only Sham model of osteoporosis was performed by subcutaneous dissection of female mouse. Mice were placed in experimental groups using the Block randomization method, and all mouse experiments were approved through the Kyungpook National University Institutional Animal Care and Use Committee.
In order to investigate whether the NPY (21-28) of the present invention affects the blood release of myelopoiesis stem cells in the animal models of osteoporosis, the following experiments were carried out according to the methods of Examples 1-1, 1-3, 1-4, and 1-5. In order to make animal models of osteoporosis, 12 weeks old C57BL/6 female mice were subjected to ovarian ablation for 10 to 18 animals in each group. One week later, 50 μg/kg of NPY (21-28) and 100 μl of PBS (Gibco) were intraperitoneally administered twice a day for 4 weeks at 12 hour intervals. As a control group, mice that underwent only subcutaneous incisions in normal mice were used. Weight change was measured weekly, and bone marrow and blood were collected one hour after the last dose at 4 weeks, and the release of myelopoiesis progenitor and stem cells into blood was analyzed. […]
In order to investigate the effect of NPY (21-28) of the present invention on weight gain induced by osteoporosis, body weight was measured once a week for a total of 4 weeks of NPY (21-28) injection. […]
In order to investigate the effects of NPY D^25(21-28), NPY D^26(21-28), and NPY D^25,26(21-28) of the present invention on weight gain induced by osteoporosis, body weight was measured once a week for a total of 4 weeks in which each peptide was injected.

[3] = test system: osteoblasts in bone marrow; assay: H & E staining of osteoblasts in bone marrow of osteoporosis animal models; type: in vivo, mouse; conditions: OVX mice, 50 μg/kg i.p. twice a day for 4 weeks; compared to PBS
Protocol: as §1
The femurs were separated from the mice and fixed in 4% paraformaldehyde for 24 hours, and tissue was decalcified in 10% EDTA for 5 weeks. It was then dehydrated with a series of diluted alcohols, paraffinized, and prepared into […] paraffin sections.
For H & E staining, the deparaffinized sections were stained with Harris hematoxyline for 8 minutes, washed with distilled water, and stained with Eosin for 1 minute.
Histomorphometric analysis was performed using the OsteoMeasure program (Extensive interactive Bone Histomorphometry Analysis System).
After the last administration of 4 weeks of NPY (21-28), the femurs were separated from the mice, and the number of osteoblasts in bone marrow was measured by H & E staining.
After the last administration of 4 weeks of NPY D^25(21-28), NPY D^26(21-28), and NPY D^25,26(21-28), the femurs were separated from the mice and the number of osteoblasts in bone marrow was measured by H & E staining.

Substance	expression levels of Sdf-1a, KitI, and Angpt1 in osteoblasts [1]	weight change [2]	number of osteoblast (Number of osteoblast/Bone surface) [3]	osteoblast surface (Osteoblast surface/Bone surface) [3]	amount of Angpt1 expression in osteoblasts, compared with NPY (21-28) ([1]; 10 nM peptide, osteoblasts)
NPY D^25(21-28): peptide in which arginine, the fifth amino acid of the amino acid sequence of NPY (21-28), is modified to D-type (YSAL[dR]HYI)	decreased	did not change in weight	increased	increased	
NPY D^25,26(21-28): peptide in which both the fifth and sixth amino acids of NPY (21-28) are modified to D-form (YSAL[dR][dH]YI)	decreased	did not change in weight	increased	increased	further reduce the amount of Angpt1 expression than NPY (21-28)
YSALRHYI [NPY (21-28)]	decreased	did not change in weight	increased; also recorded: better than that of Osteopep2	increased; also recorded: better than that of Osteopep2	
